The source of these data is PMC8880714, “Antimicrobial effect and mechanism of bovine lactoferrin against the potato common scab pathogen Streptomyces scabiei” (PLoS ONE, 2022).

Read-outs that look alike come from different tables or passages of the source. Where no end group is shown, it is not given here.

One data set deals with Streptomyces scabiei S58. Nature of the data set: microbe, parasite or virus in culture. Type of data set: cell-based. The method, then:
S. scabiei S58, isolated from potatoes grown in Kagoshima, Japan, was used in this study. […] For antimicrobial assays, the spores of the isolate were incubated at 28 °C in tryptic soy broth (TSB) (Becton Dickinson, Sparks, USA). Escherichia coli strains JM109 and BL21(λDE3) were grown at 37 °C in Luria-Bertani broth supplemented with 100 μg/mL ampicillin for propagation.
A 12-well plate was used to assess the antimicrobial activity of LF, hydrolysate, LFcinB, and synthetic peptides. One milliliter of TSB containing each test substance was added to each well and then the spores of S. scabiei S58, prepared as described above, were added into each well at a final concentration of 2 × 10^5 spores/mL. The mixture was incubated at 28 °C for 72 h, and the absorbance was measured at 600 nm to monitor bacterial growth. To further confirm whether the antimicrobial activity is due to growth inhibition or bactericidal effect, 1 mL of TSB containing 2 ×10^3 spores and bLF (1 mg/mL) was incubated at 28 °C and directly cultured on STA after 5, 10, 15, 24, 48, and 72 h of incubation to count the emerging colonies. All assays were performed in duplicate and were repeated three times.

The nature of data set [1]: pH of the medium in which the substance was dissolved. Type of data set: physicochemical. An excerpt: On the contrary, in the assay of Trp alone at high concentrations, because Trp cannot bind to the cell surface by itself, only a few numbers could reach the membrane (Fig 8C). In summary, Trp must reach the cell membrane to exert its antimicrobial activity. We speculated that the change in the chemical structures and properties of Arg and Trp may affect their antimicrobial activity, that is, the ability to bind to the bacterial cell surface. Therefore, we used Arg and Trp derivatives, namely arginine hydrochloride, tryptophan methyl ester hydrochloride, and tryptophan ethyl ester hydrochloride, which are easily available. Intriguingly, arginine hydrochloride completely lost the antimicrobial activity against S. scabiei shown by Arg (Fig 7A and 7C). Sephai et al. (2017) reported that the antimicrobial activity of poly-arginine is influenced by pH; at mild acidic pH (5 and 6), its MIC values decreased. We measured the pH of the medium in which arginine or arginine hydrochloride was dissolved and found it to be 9.5 and 5.5, respectively. Streptomyces spp. can grow at pH values ranging from 4.0 to 11.5 [63]. Teichoic and lipoteichoic acids in gram-positive bacterial cell walls are esterified to D-Ala residues and at neutral or lower pH, the amino group of D-Ala (pKa 8.42) is protonated, conferring a neutral or positive charge to the cell walls. […]

Setting [2] is: spores 2 × 10^5/mL, TSB, 28 °C, 72 h, absorbance 600 nm.
[3] abbreviates: S. scabiei S58 spores 2 × 10^5/mL, TSB, 28 °C, 72 h, absorbance 600 nm, probit analysis, mean ± SD, n = 3, N/A = no antimicrobial activity, read-out: Antimicrobial activity (IC50).

Broadly, the IC50 is the concentration needed to halve the response being measured. The term inhibition denotes the change of the read-out against control, counted positive when it falls.

For the molecule “QQWWWQ [Synthetic peptide containing three Trp residues and no Arg residue]”, the “Antimicrobial activity, in words” value in the data set on Streptomyces scabiei S58 (setting [2]) is “complete loss of activity”.
With RRWQWR [RRWQWR], in the data set with Streptomyces scabiei S58 (72 h), the midpoint of inhibition, the IC50, lay at 0.048 ± 0.009 mM.
On to `CCOC(=O)[C@@H](N)Cc1c[nH]c2ccccc12.Cl` [Tryptophan ethyl ester hydrochloride], for which the 50% inhibitory concentration (IC50) in the data set on Streptomyces scabiei S58 (setting [3]) stood at 1.303 ± 0.004 mM. Also, the “Antimicrobial activity, in words” value in the data set on Streptomyces scabiei S58 (setting [2]) was “much higher activity than that of tryptophan”.
On to `N[C@@H](Cc1c[nH]c2ccccc12)C(=O)O` [Tryptophan], for which the inhibition at 40000 µM with Streptomyces scabiei S58 (Streptomyces scabiei, S58, read-out: Inhibition of growth of S. scabiei) was found to be 40%.
As for `Cl.N=C(N)NCCC[C@H](N)C(=O)O` [Arginine hydrochloride], the “pH of the medium in which the substance was dissolved” value in data set [1] came to 5.5. In addition, the “Antimicrobial activity, in words” value in the data set on Streptomyces scabiei S58 (setting [2]) is recorded as “complete loss of activity”.
Turning to `N=C(N)NCCC[C@H](N)C(=O)O` [Arginine], in data set [1], the “pH of the medium in which the substance was dissolved” value was found to be 9.5. Also, the IC50 in the data set on Streptomyces scabiei S58 (Streptomyces scabiei, S58, 72 h, read-out: Antimicrobial activity (IC50)) came out at 14.3 ± 1.4 mM. In addition, the “Concentration necessary to completely inhibit the growth of S. scabiei” value with Streptomyces scabiei S58 (setting [2]) is recorded as 40 mM.
As to `CC[C@H](C)[C@@H]1NC(=O)[C@H](CO)NC(=O)[C@@H]2CCCN2C(=O)[C@H](C)NC(=O)CNC(=O)[C@H](CC(C)C)NC(=O)[C@H](CCCCN)NC(=O)[C@H](CCCCN)NC(=O)[C@H](CCSC)NC(=O)[C@H](CCCNC(=N)N)NC(=O)[C@H](Cc2c[nH]c3ccccc23)NC(=O)[C@H](CCC(N)=O)NC(=O)[C@H](Cc2c[nH]c3ccccc23)NC(=O)[C@H](CCCNC(=N)N)NC(=O)[C@H](CCCNC(=N)N)NC(=O)[C@@H](NC(=O)[C@H](CCCCN)NC(=O)[C@@H](N)Cc2ccccc2)CSSC[C@@H](C(=O)N[C@H](C(=O)N[C@@H](CCCNC(=N)N)C(=O)N[C@@H](CCCNC(=N)N)C(=O)N[C@@H](C)C(=O)N[C@@H](Cc2ccccc2)C(=O)O)C(C)C)NC(=O)[C@H]([C@@H](C)O)NC1=O` [Bovine lactoferricin (LFcinB)], the “Concentration at which no growth of S. scabiei was observed” value with Streptomyces scabiei S58 (setting [2]) amounted to 3.2 µM.
Turning to RRWWWR [RRWWWR], the IC50 in the data set on Streptomyces scabiei S58 (72 h) is 0.027 ± 0.002 mM.
Take “RRRQRR [Synthetic peptide containing no Trp residue]”: in the data set with Streptomyces scabiei S58 (setting [2]), the “Antimicrobial activity, in words” value is on record as “completely lost its activity”.
Take `COC(=O)[C@@H](N)Cc1c[nH]c2ccccc12.Cl` [Tryptophan methyl ester hydrochloride]: in the data set on Streptomyces scabiei S58 (setting [3]), the IC50 worked out at 2.86 ± 0.326 mM. The “Antimicrobial activity, in words” value in the data set with Streptomyces scabiei S58 (setting [2]) is reported as “much higher activity than that of tryptophan”.
